What was measured:
Format in all cases: in vivo, mice (C57BL/6)
[1] = Body weight of mice in STZ-induced insulin-resistant diabetes model
Procedure: (§1) STZ (Sigma-aldrich, S0130, 40 mg/kg b.w., in 0.1 M citrate buffer pH 4.5) was intraperitoneally administered to 9-week-old male mice (C57BL/6) once/1 day for 5 days to perform a first disease induction. After 7 weeks of the first induction, a second induction was performed using the same method as the first induction. For 5 days of an STZ administration period for the first induction, 10% sucrose was administered as drinking water. In addition, after 14 days of the second administration, blood sugar was confirmed to confirm the induction rate, and the induced animals were separated into groups. Experimental substances (R)-4-{(R)-1-[7-(3,4,5-trimethoxy-phenyl)-[1,6] naphthyridine-5-yloxy]-ethyl}pyrrolidine-2-one (BI-1002494) and cromolyn (OC-101) were administered orally into the stomach at 10 mL/kg using an oral administration syringe (sonde) before 16:00 daily for 12 weeks at a frequency of 7 days/week at doses shown in Table 1 below, respectively, and dexamethasone was orally administered as a positive control substance.

[2] = Feed intake of mice in STZ-induced insulin-resistant diabetes model; design: feed intake: unit not given here
Procedure: as §1

[3] = system: animal model of insulin-resistant diabetes; assay: Blood biochemistry, automated analyzer, at end of observation; conditions: for ALT, Mean / T-CHO, Mean / AST, Mean: 12 weeks, blood
Procedure: as §1
After the observation period for mice of each group in Example 1 was terminated, all surviving animals were fasted in the same manner as when measuring blood sugar, and then anesthetized by inhaling isoflurane, and blood was collected from the abdominal vena cava through laparotomy. After the blood collection was completed, the veins and arteries were cut under anesthesia and exsanguinated. The collected blood was left at room temperature for 30 minutes or more and then centrifuged at 3,000 rpm for 20 minutes. Thereafter, glucose, blood urea nitrogen (BUN), and creatinine were analyzed using an automated blood biochemistry analyzer (Hitachi 3100, Hitachi Co. Ltd., Japan). Indoxyl sulfate (a substance that was mainly produced in the intestines to cause kidney damage, and a substance that caused end-stage renal failure by advancing kidney function damage in patients with renal failure during hemodialysis) was analyzed using LC MS/MS. In addition, blood insulin was analyzed according to a method represented by a commercial Mouse Insulin ELISA KIT (#AKRIN-011T, Sibayagi Co. Ltd., Japan).

Compound COc1cc(-c2cc3ncccc3c(O[C@H](C)[C@H]3CNC(=O)C3)n2)cc(OC)c1OC [BI-1002494, (R)-4-{(R)-1-[7-(3,4,5-trimethoxy-phenyl)-[1,6]naphthyridine-5-yloxy]-ethyl}pyrrolidine-2-one] has a body weight, Mean ([1]; 12.5 mg/kg/day oral, week 0) of 24 g, a body weight, Mean ([1]; 12.5 mg/kg/day oral, week 1) of 23.7 g and a body weight, Mean ([1]; 12.5 mg/kg/day oral, week 2) of 23 g. For the same compound, the body weight, Mean ([1]; 12.5 mg/kg/day oral, week 3) was 24.1 g, the body weight, Mean ([1]; 12.5 mg/kg/day oral, week 4) was 24.3 g and the “body weight compared to the disease control group” value ([1]; 12.5 mg/kg, after week 5 of administration) was “statistically significantly increased”. The body weight, Mean ([1]; 25 mg/kg/day oral, week 0) was 23.6 g, the body weight, Mean ([1]; 25 mg/kg/day oral, week 1) was 23.5 g and the body weight, Mean ([1]; 25 mg/kg/day oral, week 2) was 23.7 g. The body weight, Mean ([1]; 25 mg/kg/day oral, week 3) was 23.9 g, the body weight, Mean ([1]; 25 mg/kg/day oral, week 4) was 23.9 g and the body weight, Mean ([1]; 25 mg/kg/day oral, week 5) was 24 g. The body weight, Mean ([1]; 25 mg/kg/day oral, week 6) was 23.9 g, the body weight, Mean ([1]; 25 mg/kg/day oral, week 7) was 24 g and the “body weight compared to the disease control group” value ([1]; 25 mg/kg, after week 8) was “statistically significantly increased”. For the same compound, the body weight, Mean ([1]; 50 mg/kg/day oral, week 0) was 23.9 g, the body weight, Mean ([1]; 50 mg/kg/day oral, week 2) was 23.8 g and the body weight, Mean ([1]; 50 mg/kg/day oral, week 3) was 23.8 g. For the same compound, the body weight, Mean ([1]; 50 mg/kg/day oral, week 4) was 23.8 g, the body weight, Mean ([1]; 50 mg/kg/day oral, week 5) was 23.6 g and the body weight, Mean ([1]; 50 mg/kg/day oral, week 6) was 23.8 g. The body weight, Mean ([1]; 50 mg/kg/day oral, week 7) was 24 g, the “body weight compared to the disease control group” value ([1]; 50 mg/kg, after week 8) was “statistically significantly increased” and the “feed intake compared to the disease control group” value ([2]; 12.5 mg/kg, after week 4 of administration) was “statistically significantly decreased”. The feed intake ([2]; 25 mg/kg/day oral, week 1) was 5.60, the feed intake ([2]; 25 mg/kg/day oral, week 2) was 5.58 and the feed intake ([2]; 25 mg/kg/day oral, week 3) was 5.26. It also gave a feed intake ([2]; 25 mg/kg/day oral, week 4) of 4.99, a feed intake ([2]; 25 mg/kg/day oral, week 5) of 5.15 and a feed intake ([2]; 25 mg/kg/day oral, week 7) of 5.04. For the same compound, the feed intake ([2]; 25 mg/kg/day oral, week 8) was 4.95, the feed intake ([2]; 25 mg/kg/day oral, week 9) was 4.62 and the feed intake ([2]; 25 mg/kg/day oral, week 10) was 4.63. For the same compound, the “feed intake compared to the disease control group” value ([2]; 25 mg/kg, after week 6 of administration) was “statistically significantly decreased”, the feed intake ([2]; 50 mg/kg/day oral, week 1) was 5.74 and the feed intake ([2]; 50 mg/kg/day oral, week 4) was 5.14. The feed intake ([2]; 50 mg/kg/day oral, week 7) was 5.11, the feed intake ([2]; 50 mg/kg/day oral, week 9) was 4.30 and the feed intake ([2]; 50 mg/kg/day oral, week 10) was 4.14. For the same compound, the “feed intake compared to the disease control group” value ([2]; 50 mg/kg, after week 8 of administration) was “statistically significantly decreased”, the “ALT, Mean” value ([3]; 12.5 mg/kg/day oral) was 45.7 L⁻¹ and the “T-CHO, Mean” value ([3]; 12.5 mg/kg/day oral) was 151.6 dL⁻¹. For the same compound, the “ALT, Mean” value ([3]; 25 mg/kg/day oral) was 30.9 L⁻¹, the “AST, Mean” value ([3]; 25 mg/kg/day oral) was 76.8 L⁻¹ and the “T-CHO, Mean” value ([3]; 25 mg/kg/day oral) was 125.0 dL⁻¹. For the same compound, the “ALT, Mean” value ([3]; 50 mg/kg/day oral) was 45.8 L⁻¹, the “AST, Mean” value ([3]; 50 mg/kg/day oral) was 83.4 L⁻¹ and the “T-CHO, Mean” value ([3]; 50 mg/kg/day oral) was 138.7 dL⁻¹. For the same compound, the “dose dependence of GLU reduction” value ([3]; 12.5, 25, 50 mg/kg) was “clear dose dependence”, the “blood glucose, summary” value ([3]; after induction of diabetic disease, 12.5-50 mg/kg) was “decreased in a dose-dependent manner” and the “GLU, statistical comparison” value ([3]; all administered groups (12.5, 25, 50 mg/kg)) was “statistically significantly reduced”.

Source: US20240207236A1, “COMPOUND FOR PREVENTING OR TREATING DIABETES” (ONCOCROSS CO., LTD., priority 2021, published 2024)
